Reference: patent EP1206258B1, “COMPOSITIONS CONTAINING ESTERS FOR TREATING PARASITIC INFESTATIONS OF ORGANISMS” (priority 1999, dated 2001)

What was measured:
Rabbit = details: Dermal, FRMM; cited from earlier work
Mouse = details: Oral, VPITAR 33(5)48,74; cited from earlier work
Rhizopus arrhizus = experiment: growth inhibition test on SAB agar, R. arrhizus; assay type: cell-based
Protocol: The antifungal activity of ethyl trans-cinnamate against a number of different fungi was investigated by means of in a simple growth inhibition test.
The following quantities of Ethyl trans-Cinnamate were added to Sabourand Dextrose agar (SAB); 50 ml L^-1, 4ml L^-1, 2ml L^-1, 1ml L^-1, 400 µl L^-1, 200 µl L^-1 and 40 µl L^-1. […] These were then autoclaved and poured into standard Petri dishes. […] Duplicate plates of each concentration, plus control plates containing only SAB Agar, where then separately inoculated with, four different species of fungi, these were Aspergillus nidulans, Penicillium digitatum, Rhizopus arrhizus and Fusarium culmorum. Inoculation was carried out using a single stab at the centre of each Petri dish. The plates were then incubated at 30°C for 6 days and daily measurements of mycobial growth where taken every 24 hours.

Psoroptes cuniculi = experiment: in vitro immersion assay on the mite Psoroptes cuniculi; details: for mites had died: exposed for 24 hours, control 8%
Protocol: A series of in vitro assays were conducted to examine the effects of the compound trans-cinnamic acid ethyl ester on the mite Psoroptes cuniculi. This mite infests rabbits and is very similar to the mite Psoroptes ovis which infests sheep and causes sheep scab.
The mites were taken from the ears of infested rabbits and exposed for 24 hours to the active compound at concentrations of 10, 1 or 0.1 % (V/V). The concentrations were obtained by serial dilution of the compound in 0.05% sodium dodecyl sulphate (SDS).
This is illustrated in Figure 2 of the accompanying drawings.
The LC95 was 6.29% (95% confidence interval 4.98-8.88).
Line (1) represents adult males, line (2) adult females and (3) female nymphs.
Thus, trans-cinnamic acid ethyl ester gives greater than 50% levels of mortality within 24 hours, for all life cycle stages of P. cuniculi after short contact times (1 min) at concentrations of 2.2% (V/V). At one minute contact time, concentrations of greater than 6% (V/V) are required to bring about mortality of greater than 95%. Recent theoretical analysis using simulation modelling (Wall, unpublished) has shown that sustained mortality of greater than 50% per day is required to suppress a growing population of P. ovis.

human volunteers = details: 24 hour closed-patch test, 25 human volunteers (Kligman 1973); cited from earlier work
[1] = test system: all stages of blow fly and larval life cycle; experiment: activity against blow fly and larval stages
mealworms, T.molibr = experiment: filter paper treatment of mealworms; details: 5 mealworms
Source text: Additionally, it was also noted that Ethyl cinnamate is toxic to insects, at least mealworms, T.molibr. […] 5 mealworms were placed onto each filter paper treatment. Although all were of the same instar, the 10-1 individuals were slightly larger. […] 10-7 did die. Therefore, the size of larvae appears to be important.

Rat = details: Oral, Russell 1973; cited from earlier work
Aspergillus nidulans = experiment: growth inhibition test on SAB agar, A. nidulans; assay type: cell-based; details: 50ml L-^1 and higher doses; further experiments, data not shown
Acarus siro = experiment: residual filter paper bioassay on Acarus siro (Table 2a)
Protocol: The effect of trans-cinnamic acid ethyl ester on the mite Acarus siro was investigated using a residual filter paper bioassay. Seven samples of 0.01g of mite culture was placed on 7, 90mm Whatman™ filter papers. Each paper was previously treated with 745µl of a solution containing trans-cinnamic acid ethyl ester at concentrations varying from 74.64µl to 7.64 x 10^-4 µl/petri dish respectively and allowed to dry for 15 minutes. The controls were treated in the same way except ethanol (HPLC grade) was used as this was sample dilutant. Percentage control was calculated as in W.S. Abbot, A Method of Computing the Effectiveness of an Insecticide, Journal of Economic Entomology (1925) 18, 265-267.

Guinea Pig = details: Oral, VPITAR 33(5)48,74; cited from earlier work

CCOC(=O)/C=C/c1ccccc1 [trans-cinnamic acid ethyl ester]
LDSO (Rabbit): >5000 mg·kg | LDSO (Mouse): 4000 mg/kg | Level of Radial Growth (mm) of R. arrhizus (Rhizopus arrhizus; 1ml L^-1, Day 1): 8.5 mm | Level of Radial Growth (mm) of R. arrhizus (Rhizopus arrhizus; 1ml L^-1, Day 2): 45.0 mm | Level of Radial Growth (mm) of R. arrhizus (Rhizopus arrhizus; 1ml L^-1, Day 3): 45.0 mm | Level of Radial Growth (mm) of R. arrhizus (Rhizopus arrhizus; 1ml L^-1, Day 4): 45.0 mm | Level of Radial Growth (mm) of R. arrhizus (Rhizopus arrhizus; 1ml L^-1, Day 5): 45.0 mm | Level of Radial Growth (mm) of R. arrhizus (Rhizopus arrhizus; 1ml L^-1, Day 6): 45.0 mm | Level of Radial Growth (mm) of R. arrhizus (Rhizopus arrhizus; 2ml L^-1, Day 1): 1. mm | Level of Radial Growth (mm) of R. arrhizus (Rhizopus arrhizus; 2ml L^-1, Day 2): 45.0 mm | Level of Radial Growth (mm) of R. arrhizus (Rhizopus arrhizus; 2ml L^-1, Day 3): 45.0 mm | Level of Radial Growth (mm) of R. arrhizus (Rhizopus arrhizus; 2ml L^-1, Day 4): 45.0 mm | Level of Radial Growth (mm) of R. arrhizus (Rhizopus arrhizus; 2ml L^-1, Day 5): 45.0 mm | Level of Radial Growth (mm) of R. arrhizus (Rhizopus arrhizus; 2ml L^-1, Day 6): 45.0 mm | Level of Radial Growth (mm) of R. arrhizus (Rhizopus arrhizus; 4ml L^-1, Day 1): 0 mm | Level of Radial Growth (mm) of R. arrhizus (Rhizopus arrhizus; 4ml L^-1, Day 2): 23.5 mm | Level of Radial Growth (mm) of R. arrhizus (Rhizopus arrhizus; 4ml L^-1, Day 3): 45.0 mm | Level of Radial Growth (mm) of R. arrhizus (Rhizopus arrhizus; 4ml L^-1, Day 4): 45.0 mm | Level of Radial Growth (mm) of R. arrhizus (Rhizopus arrhizus; 4ml L^-1, Day 5): 45.0 mm | Level of Radial Growth (mm) of R. arrhizus (Rhizopus arrhizus; 4ml L^-1, Day 6): 45.0 mm | Level of Radial Growth (mm) of R. arrhizus (Rhizopus arrhizus; 40µl L^-1, Day 1): 26.0 mm | Level of Radial Growth (mm) of R. arrhizus (Rhizopus arrhizus; 40µl L^-1, Day 2): 45.0 mm | Level of Radial Growth (mm) of R. arrhizus (Rhizopus arrhizus; 40µl L^-1, Day 3): 45.0 mm | Level of Radial Growth (mm) of R. arrhizus (Rhizopus arrhizus; 40µl L^-1, Day 4): 45.0 mm | Level of Radial Growth (mm) of R. arrhizus (Rhizopus arrhizus; 40µl L^-1, Day 5): 45.0 mm | Level of Radial Growth (mm) of R. arrhizus (Rhizopus arrhizus; 40µl L^-1, Day 6): 45.0 mm | duration of complete inhibition of growth (Rhizopus arrhizus; 50ml L-^1 and higher doses, further experiments, data not shown): at least 8 days | inhibition of growth (Rhizopus arrhizus; 50ml L-^1 level): complete inhibition of growth | Level of Radial Growth (mm) of R. arrhizus (Rhizopus arrhizus; 50 ml L^-1, Day 1): 0 mm | Level of Radial Growth (mm) of R. arrhizus (Rhizopus arrhizus; 50 ml L^-1, Day 2): 0 mm | Level of Radial Growth (mm) of R. arrhizus (Rhizopus arrhizus; 50 ml L^-1, Day 3): 0 mm | Level of Radial Growth (mm) of R. arrhizus (Rhizopus arrhizus; 50 ml L^-1, Day 4): 0 mm | Level of Radial Growth (mm) of R. arrhizus (Rhizopus arrhizus; 50 ml L^-1, Day 5): 0 mm | Level of Radial Growth (mm) of R. arrhizus (Rhizopus arrhizus; 50 ml L^-1, Day 6): 0 mm | Level of Radial Growth (mm) of R. arrhizus (Rhizopus arrhizus; 200µl L^-1, Day 1): 18.0 mm | Level of Radial Growth (mm) of R. arrhizus (Rhizopus arrhizus; 200µl L^-1, Day 2): 45.0 mm | Level of Radial Growth (mm) of R. arrhizus (Rhizopus arrhizus; 200µl L^-1, Day 3): 45.0 mm | Level of Radial Growth (mm) of R. arrhizus (Rhizopus arrhizus; 200µl L^-1, Day 4): 45.0 mm | Level of Radial Growth (mm) of R. arrhizus (Rhizopus arrhizus; 200µl L^-1, Day 5): 45.0 mm | Level of Radial Growth (mm) of R. arrhizus (Rhizopus arrhizus; 200µl L^-1, Day 6): 45.0 mm | Level of Radial Growth (mm) of R. arrhizus (Rhizopus arrhizus; 400µl L^-1, Day 1): 14.5 mm | Level of Radial Growth (mm) of R. arrhizus (Rhizopus arrhizus; 400µl L^-1, Day 2): 45.0 mm | Level of Radial Growth (mm) of R. arrhizus (Rhizopus arrhizus; 400µl L^-1, Day 3): 45.0 mm | Level of Radial Growth (mm) of R. arrhizus (Rhizopus arrhizus; 400µl L^-1, Day 4): 45.0 mm | Level of Radial Growth (mm) of R. arrhizus (Rhizopus arrhizus; 400µl L^-1, Day 5): 45.0 mm | Level of Radial Growth (mm) of R. arrhizus (Rhizopus arrhizus; 400µl L^-1, Day 6): 45.0 mm | LT50 (Psoroptes cuniculi; 0.1% (V/V), same as control (0.05% SDS only)): approximately 2.5 days | LD 25 Concentration (% V/V) (Psoroptes cuniculi; 24 hours after exposure): 0.53 % V/V | LD 50 Concentration (% V/V) (LC50) (Psoroptes cuniculi; 24 hours after exposure): 2.21 % V/V | LD 75 Concentration (% V/V) (Psoroptes cuniculi; 24 hours after exposure): 3.88 % V/V | LD 95 Concentration (% V/V) (LC95) (Psoroptes cuniculi; 24 hours after exposure): 6.29 % V/V | 50% mortality (LT50) (Psoroptes cuniculi; concentration 1%): 1 days | 50% mortality (LT50) (Psoroptes cuniculi; concentration 10%): 0.5 days | mites had died (Psoroptes cuniculi; 0.1 % (V/V) in 0.05% SDS): 20% | mites had died (Psoroptes cuniculi; 1 % (V/V) in 0.05% SDS): 74% | mites had died (Psoroptes cuniculi; 10 % (V/V) in 0.05% SDS): 100% | concentrations required to bring about mortality of greater than 95% (Psoroptes cuniculi; one minute contact time): greater than 6 % (V/V) | levels of mortality (Psoroptes cuniculi; within 24 hours, all life cycle stages, contact time 1 min, 2.2% (V/V)): greater than 50% | sensitization (human volunteers): no sensitization | effectiveness against all stages of blow fly and larval life cycle [1]: ineffective | death of mealworms (mealworms, T.molibr; concentration 10-1, slightly larger individuals, moulted after two days): did not die | death of mealworms (mealworms, T.molibr; concentration printed 10-7): did die | LDSO (Rat): 7800 mg/kg | duration of complete inhibition of growth (Aspergillus nidulans): at least 8 days | percentage control figure (Acarus siro; 7.64µl/petri dish): 100% | Mean Percentage Mortality Over Control (Acarus siro; Concentration (µl) 3.20): 95.57 | Mean Percentage Mortality Over Control (Acarus siro; Concentration (µl) 3.20 x 10^1): 100.00 | Mean Percentage Mortality Over Control (Acarus siro; Concentration (µl) 3.20 x 10^-1): 97.74 | Mean Percentage Mortality Over Control (Acarus siro; Concentration (µl) 3.20 x 10^-2): 69.51 | Mean Percentage Mortality Over Control (Acarus siro; Concentration (µl) 3.20 x 10^-3): 32.95 | Mean Percentage Mortality Over Control (Acarus siro; Concentration (µl) 3.20 x 10^-4): 6.33 | LDSO (Guinea Pig): 4000 mg/kg
